Legend:
Format in all cases: cell-based
[1] = system: 60 human cancer cell lines; test: NCI60 one-dose screen, overall mean; conditions: mean over all 60 cell lines, read-out: Mean growth percent
Method: The screening results are presented in the Supplementary Materials (Table S1), where the cytotoxicity was determined for the 10 µM concentration. […] The negative numbers indicate significant decreases in the cell number. […] Compared to the reference chrysin (2), all phosphonium hybrids (3a–h) had significant antiproliferative activities. […] At the same time, it should be noted that more than 60% average reduction was also obtained in the case of the other examined conjugates (3a–h).
A detailed description of the NCI screening procedures, including the one-dose and five-dose tests, can be found in the Supplementary Materials, on the website of NCI [39], and in our previous work.
A detailed description of the NCI screening procedures can also be found on the website of NCI [39], and in our […]
All candidates were examined at first at a single high dose (10 μM) in the full NCI60 cell panel. The value reported for the one-dose test is growth relative to the no-drug control and relative to the time zero number of cells. This made possible the disclosure of both growth inhibition (numbers between 0 and 100) and lethality (numbers less than 0). For example, a value of 100 means no growth inhibition. A value of 20 would mean 80% growth inhibition. A value of 0 means no net growth over the course of the analysis. A value of −20 would mean 20% lethality. A value of −100 means all cells are dead. […]
concentration levels. The human tumor cell lines of the cancer screening panel were grown in RPMI 1640 medium containing 5% fetal bovine serum and 2 mM l-glutamine. Characteristically, cells were injected in 96-well microtiter plates in 0.1 mL at plating densities ranging from 5000 to 40,000 cells/well, depending on the doubling time of individual cell lines. After cell inoculation, the microtiter plates were incubated at 37 °C, 5% carbon dioxide, 95% air, and 100% relative humidity for 24 hours before the addition of tested compounds. After 24 hours, 2 plates of each cell line were fixed in situ with Cl3COOH (TCA), to represent a measurement of the cell population for each cell line at the time of drug addition (tz). Tested compounds were solubilized in DMSO at 400-fold the desired final maximum test concentration and stored frozen before application. In the course of the drug addition, an aliquot of frozen concentrate was thawed and diluted to twice the desired final maximum test concentration with a complete medium containing 50 μg mL−1 gentamicin. Additional four, 10-fold or ½ log serial dilutions were produced to furnish a total of five drug concentrations plus control. Aliquots of 0.1 mL of these different drug dilutions were added to the appropriate microtiter wells already containing 0.1 mL of medium, resulting in the required final drug concentrations.
Following drug addition, the plates were incubated at 37 °C, 5% carbon dioxide, 95% air, and 100% relative humidity for an additional 48 hours. For adherent cells, the test was finished by the addition of cold Cl3COOH. Cells were fixed in situ by the addition of 50 μL of cold 50% (w/v) Cl3COOH, and incubated at 4 °C for 1 hour. The supernatant was discarded, and the plates were washed with H2O (5×) and dried in air. Sulforhodamine B (SRB) solution (0.1 mL) at 0.4% (w/v) in 1% CH3COOH was added to each well, and plates were incubated at RT for 10 min. After staining, the unbound dye was removed by washing five times with 1% CH3COOH, and the plates were dried in the air. The bound stain is afterward solubilized with a 10 mM trizma base, and the absorbance is read on an automated plate reader at λ = 515 nm. Utilizing the seven absorbance measurements [time zero (tz), control growth (c), and test growth in the presence of the drug at the five concentration levels (ti)], the percentage growth was determined at each of the drug concentration levels. Growth inhibition (%) was calculated as:
[(ti − tz)/(c − tz)] × 100, for concentrations where ti ≥ tz (1) […]

IGROV1 = test: NCI60 one-dose screen; conditions: Homo sapiens, IGROV-1; IGROV1, 10 μM; read-out: Growth percent
In short: (§1)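 Readings at 515 nm of bound sulforhodamine B gave percent growth versus a no-drug control and the time-zero population, where −100 means all cells dead. Cells had been exposed to a 10 µM single dose for 48 h.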

NCI-H522 = test: NCI60 one-dose screen; conditions: Homo sapiens; NCI-H522, 10 μM; read-out: Growth percent
In short: as §1

OVCAR-8 = test: NCI60 one-dose screen; conditions: Homo sapiens; OVCAR-8, 10 μM; read-out: Growth percent
In short: as §1

LOX IMVI = test: NCI60 one-dose screen; conditions: Homo sapiens, read-out: Growth percent
In short: as §1

HS 578T = test: NCI60 one-dose screen; conditions: Homo sapiens, read-out: Growth percent
In short: as §1

786-0 = test: NCI60 one-dose screen; conditions: Homo sapiens; 786-0, 10 μM; read-out: Growth percent
In short: as §1

SF-295 = test: NCI60 one-dose screen; conditions: Homo sapiens; SF-295, 10 μM; read-out: Growth percent
In short: as §1

A498 = test: NCI60 one-dose screen; conditions: Homo sapiens; A498, 10 μM; read-out: Growth percent
In short: as §1

MDA-MB-231/ATCC = test: NCI60 one-dose screen; conditions: Homo sapiens, read-out: Growth percent
In short: as §1

RPMI-8226 = test: NCI60 one-dose screen; conditions: Homo sapiens; RPMI-8226, 10 μM; read-out: Growth percent
In short: as §1

NCI/ADR-RES = test: NCI60 one-dose screen; conditions: Homo sapiens, read-out: Growth percent
In short: as §1

SK-MEL-5 = test: NCI60 one-dose screen; conditions: Homo sapiens; SK-MEL-5, 10 μM; read-out: Growth percent
In short: as §1

NCI-H460 = test: NCI60 one-dose screen; conditions: Homo sapiens; NCI-H460, 10 μM; read-out: Growth percent
In short: as §1

TK-10 = test: NCI60 one-dose screen; conditions: Homo sapiens; TK-10, 10 μM; read-out: Growth percent
In short: as §1

DU-145 = test: NCI60 one-dose screen; conditions: Homo sapiens; DU-145, 10 μM; read-out: Growth percent
In short: as §1

MOLT-4 = test: NCI60 one-dose screen; conditions: Homo sapiens; MOLT-4, 10 μM; read-out: Growth percent
In short: as §1

OVCAR-3 = test: NCI60 one-dose screen; conditions: Homo sapiens; OVCAR-3, 10 μM; read-out: Growth percent
In short: as §1

`O=c1cc(-c2ccccc2)oc2cc(OCCCC[P+](c3ccccc3)(c3ccccc3)c3ccccc3)cc(O)c12` [3a] gave an activity at 10 µM [1] of -74.3%, an activity at 10 µM (IGROV1) of -75.7% and an activity at 10 µM (NCI-H522) of -81.9%. The activity at 10 µM (OVCAR-8) was -61.1%, the activity at 10 µM (LOX IMVI) was -90.1% and the activity at 10 µM (HS 578T) was -35.2%. The activity at 10 µM (786-0) was -69.5%, the activity at 10 µM (SF-295) was -96% and the activity at 10 µM (A498) was -83.3%. The activity at 10 µM (MDA-MB-231/ATCC) was -32.2%, the activity at 10 µM (RPMI-8226) was -66.7% and the activity at 10 µM (NCI/ADR-RES) was -68.3%. The activity at 10 µM (SK-MEL-5) was -98.4%, the activity at 10 µM (NCI-H460) was -75.8% and the activity at 10 µM (TK-10) was -81.8%. It also gave an activity at 10 µM (DU-145) of -94.8%, an activity at 10 µM (MOLT-4) of -41.7% and an activity at 10 µM (OVCAR-3) of -94%.
Compound `Cc1ccc([P+](CCCCOc2cc(O)c3c(=O)cc(-c4ccccc4)oc3c2)(c2ccc(C)cc2)c2ccc(C)cc2)cc1` [3b] has an activity at 10 µM [1] of -69.9%, an activity at 10 µM (IGROV1) of -46.9% and an activity at 10 µM (NCI-H522) of -74.4%. It also gave an activity at 10 µM (OVCAR-8) of -30.1%, an activity at 10 µM (LOX IMVI) of -91.2% and an activity at 10 µM (HS 578T) of -52.2%. The activity at 10 µM (786-0) was -69.8%, the activity at 10 µM (SF-295) was -91.3% and the activity at 10 µM (A498) was -81.5%. It also gave an activity at 10 µM (MDA-MB-231/ATCC) of -90.7%, an activity at 10 µM (RPMI-8226) of -55.8% and an activity at 10 µM (NCI/ADR-RES) of -65.7%. The activity at 10 µM (SK-MEL-5) was -96.5%, the activity at 10 µM (NCI-H460) was -47.8% and the activity at 10 µM (TK-10) was -79.3%. For the same compound, the activity at 10 µM (DU-145) was -85.9%, the activity at 10 µM (MOLT-4) was -43.4% and the activity at 10 µM (OVCAR-3) was -88.2%.
`COc1ccc([P+](CCCCOc2cc(O)c3c(=O)cc(-c4ccccc4)oc3c2)(c2ccc(OC)cc2)c2ccc(OC)cc2)cc1` [3c] was tested, and the activity at 10 µM [1] was -68.3%, the activity at 10 µM (IGROV1) was -6.99% and the activity at 10 µM (NCI-H522) was -84.9%. For the same compound, the activity at 10 µM (OVCAR-8) was -90.6%, the activity at 10 µM (LOX IMVI) was -78.8% and the activity at 10 µM (HS 578T) was -62.7%. The activity at 10 µM (786-0) was -65.3%, the activity at 10 µM (SF-295) was -73.8% and the activity at 10 µM (A498) was -83%. The activity at 10 µM (MDA-MB-231/ATCC) was -72.1%, the activity at 10 µM (RPMI-8226) was -67.5% and the activity at 10 µM (NCI/ADR-RES) was -13.2%. It also gave an activity at 10 µM (SK-MEL-5) of -93.9%, an activity at 10 µM (NCI-H460) of 2.18% and an activity at 10 µM (TK-10) of -87.1%. It also gave an activity at 10 µM (DU-145) of -90.7%, an activity at 10 µM (MOLT-4) of -51.6% and an activity at 10 µM (OVCAR-3) of -68.1%.
For `O=c1cc(-c2ccccc2)oc2cc(OCCCC[P+](c3ccc(F)cc3)(c3ccc(F)cc3)c3ccc(F)cc3)cc(O)c12` [3d], the activity at 10 µM [1] was -69.5%, the activity at 10 µM (IGROV1) was -64% and the activity at 10 µM (NCI-H522) was -74.4%. For the same compound, the activity at 10 µM (OVCAR-8) was -45.6%, the activity at 10 µM (LOX IMVI) was -93.7% and the activity at 10 µM (HS 578T) was -54.5%. The activity at 10 µM (786-0) was -56.5%, the activity at 10 µM (SF-295) was -74% and the activity at 10 µM (A498) was -87.6%. For the same compound, the activity at 10 µM (MDA-MB-231/ATCC) was -95%, the activity at 10 µM (RPMI-8226) was -30.1% and the activity at 10 µM (NCI/ADR-RES) was 65%. For the same compound, the activity at 10 µM (SK-MEL-5) was -99.2%, the activity at 10 µM (NCI-H460) was -47.4% and the activity at 10 µM (TK-10) was -84.8%. The activity at 10 µM (DU-145) was -79.2%, the activity at 10 µM (MOLT-4) was -24.3% and the activity at 10 µM (OVCAR-3) was -72%.

Source: publication PMC12652692, “Synthesis and In Vitro Anticancer Evaluation of Novel Phosphonium Derivatives of Chrysin” (International Journal of Molecular Sciences, 2025)
